Here are results for 3 molecules from US20230146507A1, “N-PHENYL-3-MERCAPTOPROPANAMIDE DERIVATIVES AS METALLO-BETA-LACTAMASE INHIBITORS FOR THE TREATMENT OF BACTERIAL INFECTIONS” (Helmholtz-Zentrum Für Infektionsforschung GmbH, priority 2020, published 2023).

Converted amounts (≈) assume the structure as drawn.

The test system of series [1] is E. coli producing NDM-1. The series can be described thus: MIC of imipenem in the presence of HIPS1686. The note with it: for MIC: Escherichia coli. It counts as cell-based.
The test system of series [2] is E. coli NDM-1 (T2359). The series can be described thus: Checkerboard assay with imipenem, E. coli NDM-1 (T2359). The class given is cell-based. As for the experimental part:
(§1) Fractional inhibitory concentration index (FICI). The checkerboard assay was performed to test for synergy in vitro. […] FICIs≤0.5 were defined as synergistic; FICIs from >0.5 to […] were defined as additive; FICIs from 1 to ≤4 were defined as indifferent and FICIs>4 were defined as antagonistic (Doern, C. D. When Does 2 plus 2 Equal 5? A Review of Antimicrobial Synergy Testing. J. Clin. Microbial. 2014, 52 (12), 4124-4128. https://doi.org/10.1128/JCM.01121-14).

Series [3] relates to E. coli VIM-1 (T2544). As to the kind of experiment: Checkerboard assay with imipenem, E. coli VIM-1 (T2544). The class given is cell-based. As to the method: as §1
Series [4] has as its system E. coli IMP-1 (T2360). As to the kind of experiment: Checkerboard assay with imipenem, E. coli IMP-1 (T2360). It counts as cell-based. The settings on record: Escherichia coli, read-out: Imipenem MIC. As for the experimental part: as §1
Series [5] has as its system S. marcescens NDM-1 (T2352). The series can be described thus: MIC assay, clinical isolate. It counts as cell-based.
Series [6] has as its system P. aeruginosa IMP-1 (T2325). As to the kind of experiment: MIC assay, clinical isolate. It counts as cell-based.
Series [7] has as its system E. cloacae GIM-1 (T2218). The series can be described thus: MIC assay, clinical isolate. The class given is cell-based.
Series [8] concerns E. coli NDM-7 (T2239). As to the kind of experiment: MIC assay, clinical isolate. It counts as cell-based. The note with it: Escherichia coli, read-out: MIC (mg/L) Imipenem.
Series [9] deals with T1, NDM-1 (Klebsiella pneumoniae, UniProt C7C422).
T1 construct: made in house
T1 sequence (C7C422 29-270, looked up, species assumed): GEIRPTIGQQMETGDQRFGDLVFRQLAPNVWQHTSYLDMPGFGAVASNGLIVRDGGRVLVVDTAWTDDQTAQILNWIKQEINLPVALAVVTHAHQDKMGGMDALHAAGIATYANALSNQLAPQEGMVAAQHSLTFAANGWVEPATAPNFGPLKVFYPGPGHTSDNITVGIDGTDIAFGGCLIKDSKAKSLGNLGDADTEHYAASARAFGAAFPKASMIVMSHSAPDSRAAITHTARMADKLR
As to the kind of experiment: In vitro inhibition assay (kinetic fluorescence-based activity assay), NDM-1. It counts as biochemical. The settings on record: Means and SD of at least two independent experiments. As to the method: (§2) Protein expression and purification. The expression of IMP-7, VIM-1, and NDM-1 was performed according to the protocol previously published by Klingler et al. (Klingler, F. M.; Wichelhaus, T. A.; Frank, D.; Cuesta-Bernal, J.; El-Delik, J.; Müller, H. F.; Sjuts, H.; Gottig, S.; Koenigs, A.; Pos, K. M.; et al. Approved Drugs Containing Thiols as Inhibitors of Metallo-β-Lactamases: Strategy to Combat Multidrug-Resistant Bacteria. J. Med. Chem. 2015, 58 (8), 3626-3630. https://doi.org/10.1021/jm501844d) with slight modifications.
(§3) In vitro inhibition assay. Activity assays for NDM-1, VIM-1, VIM-2 and IMP-7 were carried out, as described by Klingler et al. Final protein concentrations were 0.5 nM (NDM-1), 4.0 nM (VIM-1), and 0.1 nM (IMP-7) in a 50 mM HEPES buffer (pH 7.5, 0.01% Triton X-100) Substrate (Fluorocillin™ (Invitrogen, Darmstadt, Germany) was dissolved in assay buffer to a final concentration of 888 nM. Test compounds were dissolved and pre-diluted in DMSO (final concentration: 1%). In a black polystyrol 96-well plate (Corning) an amount of […] of the respective inhibitor solution at different concentrations was incubated with […] of respective protein containing buffer for 30 minutes at room temperature. […] of substrate solution was added. The readout of the emitted fluorescence was started immediately (45 s for 30 cycles) using a Tecan Infinite F200Pro (Tecan Group Ltd; excitation at 495 nm and emission at 525 nm). Blank controls were performed without enzyme. Positive controls were performed with enzyme but without inhibitor. The inhibitory activity of each test compound was measured in three independent experiments. For calculation of IC50 values, data obtained from measurements with eight different inhibitor concentrations were used. For the evaluation of the sigmoidal dose response equation (variable slope with four parameters) GraphPad Prism 5 (GraphPad Software, La Jolla, Calif., USA) was used.

Series [10] addresses IMP-7 (Pseudomonas aeruginosa, UniProt Q93AU3). As to the kind of experiment: In vitro inhibition assay (kinetic fluorescence-based activity assay), IMP-7. The class given is biochemical. The note with it: Means and SD of at least two independent experiments. As for the experimental part: as §2, §3
Series [11] concerns the target T2, VIM-1 (Pseudomonas aeruginosa, UniProt A0A0F7KYQ8).
T2 construct: made in house
The series can be described thus: In vitro inhibition assay (kinetic fluorescence-based activity assay), VIM-1. It counts as biochemical. The note with it: Means and SD of at least two independent experiments. As for the experimental part:
as §2, §3

Series [12] deals with MMP-1 (Homo sapiens, UniProt P03956). The series can be described thus: Selectivity assay on MMP-1. The class given is biochemical. The settings on record: read-out: % Inh. @ 100 μM MMP-1. As to the method:
(§4) Cytotoxicity assays and Selectivity assays. Cytotoxicity assays on HepG2, HEK293 and A549 cells and selectivity assays on various MMPs were performed as described previously (Haupenthal, J.; Baehr, C.; Zeuzem, S.; Piiper, A. RNAse A-like Enzymes in Serum Inhibit the Anti-Neoplastic Activity of SiRNA Targeting Polo-like Kinase 1. Int. J. Cancer 2007, 121 (1), 206-210. https://doi.org/10.1002/ijc.22665).

The target in series [13] is MMP-2 (Homo sapiens, UniProt P08253). As to the kind of experiment: Selectivity assay on MMP-2. The settings on record: read-out: % Inh. @ 100 μM MMP-2. The class given is biochemical. As to the method:
as §4

Series [14] deals with MMP-3 (Homo sapiens, UniProt P08254). The series can be described thus: Selectivity assay on MMP-3. The class given is biochemical. The note with it: read-out: % Inh. @ 100 μM MMP-3. As for the experimental part:
as §4

Series [15] deals with MMP-7 (Homo sapiens, UniProt P09237). As to the kind of experiment: Selectivity assay on MMP-7. It counts as biochemical. The note with it: read-out: % Inh. @ 100 μM MMP-7. As for the experimental part: as §4
Chain of MMP-7 (P09237 95-267): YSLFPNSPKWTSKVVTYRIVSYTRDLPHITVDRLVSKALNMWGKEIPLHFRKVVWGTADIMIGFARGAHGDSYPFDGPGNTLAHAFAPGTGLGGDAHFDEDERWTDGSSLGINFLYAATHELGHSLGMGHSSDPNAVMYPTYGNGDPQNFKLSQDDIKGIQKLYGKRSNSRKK
The target in series [16] is MMP-8 (Homo sapiens, UniProt P22894). The series can be described thus: Selectivity assay on MMP-8. It counts as biochemical. The settings on record: read-out: % Inh. @ 100 μM MMP-8. As to the method:
as §4

In series [17] the target is MMP-14 (Homo sapiens, UniProt P50281). As to the kind of experiment: Selectivity assay on MMP-14. The note with it: read-out: % Inh. @ 100 μM MMP-14. It counts as biochemical. As for the experimental part: as §4
Series [18] can be described thus: Cytotoxicity assay on HepG2 cells. It counts as cell-based. The settings on record: human. As to the method: as §4
Series [19] is described as follows: Cytotoxicity assay on HEK293 cells. It counts as cell-based. The settings on record: human. As for the experimental part:
as §4

Series [20] is described as follows: Cytotoxicity assay on A549 cells. It counts as cell-based. The settings on record: human. As for the experimental part: as §4
Series [21] concerns different isolates from E. coli and P. aeruginosa. The series can be described thus: MIC assay, intrinsic antibacterial activity. The class given is cell-based. The note with it: compound alone.
Series [22] relates to imipenem-resistant P. aeruginosa producing VIM-2. As to the kind of experiment: Imipenem MIC with compound at single concentration. The settings on record: compound at single concentration 1024 μg/mL. It counts as cell-based.
The subject of series [23] is K. pneumoniae NDM-1 (T2301). As to the kind of experiment: MIC assay, clinical isolate. The class given is cell-based. The settings on record: +HIPS1686 256 mg/L.
For series [24], the system named is E. cloacae NDM-1 (T2311). As to the kind of experiment: MIC assay, clinical isolate. It counts as cell-based. The note with it: +HIPS1686 256 mg/L.
For series [25], the system named is E. coli NDM-5 (T2351). As to the kind of experiment: MIC assay, clinical isolate. The class given is cell-based. The note with it: +HIPS1686 256 mg/L.
Series [26] concerns E. cloacae VIM-1 (T2353). The series can be described thus: MIC assay, clinical isolate. It counts as cell-based. The settings on record: +HIPS1686 256 mg/L.

Chain of IMP-7 (Q93AU3 entry or part of it): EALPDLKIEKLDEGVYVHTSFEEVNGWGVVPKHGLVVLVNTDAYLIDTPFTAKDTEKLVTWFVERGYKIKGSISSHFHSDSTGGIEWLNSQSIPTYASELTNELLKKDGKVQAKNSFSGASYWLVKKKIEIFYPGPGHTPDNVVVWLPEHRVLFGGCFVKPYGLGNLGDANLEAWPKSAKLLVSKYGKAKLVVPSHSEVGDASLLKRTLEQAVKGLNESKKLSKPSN
Chain of MMP-8 (P22894 101-467): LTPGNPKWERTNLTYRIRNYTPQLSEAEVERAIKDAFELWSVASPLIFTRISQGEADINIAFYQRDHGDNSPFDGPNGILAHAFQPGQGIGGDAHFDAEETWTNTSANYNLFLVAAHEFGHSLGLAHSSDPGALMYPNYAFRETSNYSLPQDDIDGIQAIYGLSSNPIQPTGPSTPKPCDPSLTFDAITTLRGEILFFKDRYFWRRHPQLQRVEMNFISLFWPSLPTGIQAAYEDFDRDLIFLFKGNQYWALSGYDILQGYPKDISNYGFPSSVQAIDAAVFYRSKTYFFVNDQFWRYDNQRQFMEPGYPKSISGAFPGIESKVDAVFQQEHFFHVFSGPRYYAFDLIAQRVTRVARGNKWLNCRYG
Chain of MMP-2 (P08253 110-660): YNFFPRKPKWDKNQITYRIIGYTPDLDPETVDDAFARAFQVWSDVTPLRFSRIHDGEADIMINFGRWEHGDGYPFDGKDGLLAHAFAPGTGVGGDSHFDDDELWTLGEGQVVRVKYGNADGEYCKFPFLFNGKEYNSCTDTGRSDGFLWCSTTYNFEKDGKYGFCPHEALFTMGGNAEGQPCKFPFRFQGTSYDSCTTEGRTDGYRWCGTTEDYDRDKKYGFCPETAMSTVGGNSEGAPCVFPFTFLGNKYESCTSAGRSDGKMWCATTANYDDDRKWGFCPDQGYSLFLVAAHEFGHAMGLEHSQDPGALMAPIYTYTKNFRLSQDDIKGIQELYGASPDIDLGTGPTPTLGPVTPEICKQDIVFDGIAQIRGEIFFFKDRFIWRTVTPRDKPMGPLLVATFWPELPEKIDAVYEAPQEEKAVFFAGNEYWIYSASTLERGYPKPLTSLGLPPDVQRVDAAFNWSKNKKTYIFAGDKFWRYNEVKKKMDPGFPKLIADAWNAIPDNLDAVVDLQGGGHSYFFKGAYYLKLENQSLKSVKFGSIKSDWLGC
Chain of MMP-3 (P08254 100-477): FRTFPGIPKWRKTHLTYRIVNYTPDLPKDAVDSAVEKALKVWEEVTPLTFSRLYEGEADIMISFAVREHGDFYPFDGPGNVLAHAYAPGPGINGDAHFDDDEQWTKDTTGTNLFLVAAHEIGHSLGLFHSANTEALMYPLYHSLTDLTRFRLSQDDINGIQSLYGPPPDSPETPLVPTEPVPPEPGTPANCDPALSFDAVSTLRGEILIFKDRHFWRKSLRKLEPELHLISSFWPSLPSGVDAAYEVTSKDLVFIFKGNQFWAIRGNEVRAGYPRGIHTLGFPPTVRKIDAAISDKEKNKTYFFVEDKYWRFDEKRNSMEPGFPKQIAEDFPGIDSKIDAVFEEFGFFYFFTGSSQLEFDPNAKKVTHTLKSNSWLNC
Chain of MMP-1 (P03956 100-469): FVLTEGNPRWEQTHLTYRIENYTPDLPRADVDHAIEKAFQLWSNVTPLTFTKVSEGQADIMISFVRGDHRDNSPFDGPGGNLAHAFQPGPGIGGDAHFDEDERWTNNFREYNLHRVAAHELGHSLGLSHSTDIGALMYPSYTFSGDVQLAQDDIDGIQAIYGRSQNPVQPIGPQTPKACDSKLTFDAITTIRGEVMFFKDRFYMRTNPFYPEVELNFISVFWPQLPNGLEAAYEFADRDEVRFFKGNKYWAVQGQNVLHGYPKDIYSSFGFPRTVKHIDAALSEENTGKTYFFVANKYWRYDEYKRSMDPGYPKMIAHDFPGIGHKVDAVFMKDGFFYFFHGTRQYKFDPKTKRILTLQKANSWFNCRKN

Take `C[C@@H](O)[C@H]1C(=O)N2C(C(=O)O)=C(SCCN=CN)C[C@H]12` [Imipenem, reference compound]: the MIC in series [1] was determined as 128 µg/mL; in series [2] (Escherichia coli, read-out: Imipenem MIC), 128 µg/mL; in series [3] (Escherichia coli, read-out: Imipenem MIC, without compound) it was 32 µg/mL; in [4], 2 µg/mL; in series [5] (Serratia marcescens, read-out: MIC (mg/L) Imipenem) it was 256 mg/L (≈ 855 µM); in series [6] (Pseudomonas aeruginosa, read-out: MIC (mg/L) Imipenem), 64 mg/L (≈ 214 µM). The MIC in series [7] (Enterobacter cloacae, read-out: MIC (mg/L) Imipenem) was determined as 2 mg/L (≈ 6.68 µM); in series [8], 32 mg/L (≈ 107 µM). The “Imipenem MIC” value in series [2] (Table 6, without compound) worked out at 128 µg/mL; in series [3] (without compound), 64 µg/mL.
For the molecule `O=C(CCS)Nc1ccc(Cl)c(Cl)c1` [HIPS1447, N-(3,4-Dichlorophenyl)-3-mercaptopropanamide], the IC50 in series [9] was 1.3 µM; in series [10], 5 ± 0.6 µM; in series [11], 0.1 µM; in [18], above 100 µM; in [19], above 100 µM; in [20] it was above 100 µM. In addition, the inhibition at 100 µM in series [12] was below 10%; in [13] it was 15.8 ± 13.5%; in [14], below 10%; in series [15], below 10%; in [16], 38.2 ± 24.8%; in [17], 17.9 ± 7.8%. Further, in series [21], the “intrinsic antibacterial activity (MIC)” value is on record as “no intrinsic antibacterial activity”. In series [22], the “fold decrease of imipenem MIC value” turned out to be 64 fold.
For `O=C(CCS)Nc1ccccc1C(=O)O` [HIPS1686], the IC50 in series [9] came to 3.4 ± 0.1 µM; in [10], 4.1 ± 0.3 µM; in series [11], 2.2 ± 0.2 µM. Besides, the “intrinsic antibacterial activity (MIC)” value in series [21] was “no intrinsic antibacterial activity”. The MIC in [1] is above 1020 µg/mL. Also, the “MIC of imipenem in the presence of HIPS1686” value in [1] (HIPS1686 constant 64 μg/ml) stood at 4 µg/mL; in series [1] (HIPS1686 constant 256 μg/ml) it was 1 µg/mL; in [1] (HIPS1686 constant 1024 μg/ml), 1 µg/mL. In addition, the “Imipenem MIC” value came to 64 µg/mL in series [2] (Table 4, +4 mg/L HIPS1686, median of three experiments); 64 µg/mL in series [2] (Table 4, +8 mg/L HIPS1686, median of three experiments); 64 µg/mL in series [2] (Table 4, +16 mg/L HIPS1686, median of three experiments); 16 µg/mL in series [2] (Table 4, +32 mg/L HIPS1686, median of three experiments); 8 µg/mL in series [2] (Table 4, +64 mg/L HIPS1686, median of three experiments); 2 µg/mL in series [2] (Table 4, +128 mg/L HIPS1686, median of three experiments). The “Imipenem MIC” value in [2] (Table 4, +256 mg/L HIPS1686, median of three experiments) was found to be 2 µg/mL. Moreover, the “MIC (mg/L) Imipenem (+HIPS1686 256 mg/L)” value in series [23] was 1 mg/L (≈ 4.44 µM); in series [24] it was 1 mg/L (≈ 4.44 µM); in series [5] (+HIPS1686 256 mg/L, S. marcescens NDM-1 (T2352)), 4 mg/L (≈ 17.8 µM); in series [25] it was 2 mg/L (≈ 8.88 µM); in [26], 4 mg/L (≈ 17.8 µM); in [6] (+HIPS1686 256 mg/L, P. aeruginosa IMP-1 (T2325)), 32 mg/L (≈ 142 µM). For the same molecule, the “MIC (mg/L) Imipenem (+HIPS1686 256 mg/L)” value in series [7] (+HIPS1686 256 mg/L, E. cloacae GIM-1 (T2218)) is recorded as 0.5 mg/L (≈ 2.22 µM).
